Experimental data as given in publication PMC6264390, “Design, Synthesis and Structure-activity Studies of Rhodanine Derivatives as HIV-1 Integrase Inhibitors” (Molecules, 2010).
Read-outs that look alike come from different tables or passages of the source.

Assays:
[1] = system: MDA-MB 435 melanoma cell line; experiment: MTT cytotoxicity assay, MDA-MB 435; type: cell-based; conditions: Homo sapiens, 72 h, read-out: GI50, MDA-MD435
Excerpt: (§1) Human melanoma cell line MDA-MB 435, pancreatic cancer cell line Panc-1, and colon cancer cell line HT 29 were purchased from the American Type Cell Culture (Manassas, VA, USA). HCT 116 p53^+/+ and HCT 116 p53^−/^− were kindly provided by Dr. Bert Vogelstein, Johns Hopkins Medical Institutions (Baltimore, MD, USA). HCT 116 p53^+/+, HCT116 p53^−/^−, and HT 29 cells were maintained as monolayer cultures in RPMI 1640 supplemented with 10% fetal bovine serum (FBS; Gemini-Bioproducts, Woodland, CA, USA) and 2 mmol/L L-glutamine at 37 °C in a humidified atmosphere of 5% CO2. Similarly, MDA-MB 435 and Panc-1 cells were maintained in Dulbecco’s modified Eagle’s medium (DMEM) supplemented with 10% fetal bovine serum as described above. […]
(§2) Cytotoxicity was assessed by 3-(4,5-dimethylthiazol-2-yl)-2,5-diphenyltetrazolium bromide (MTT) assay as previously described. […]
(§3) After 72 h exposure to the test compounds, MTT solution (5 mg/mL; 20 μL) was added to each well and cells were incubated for 4 h at 37 °C. […] The absorbance intensity was measured at 570 nm against appropriate blank controls using a microplate reader (Molecular Devices, Sunnyvale, CA, USA). […]

HIV-1 IN = target: T1, HIV-1 IN (Human immunodeficiency virus type 1 group M subtype B, UniProt P12497); experiment: In vitro IN inhibition assay (3’-processing and strand transfer); type: biochemical; conditions: Mn2+ cofactor (7.5 mM MnCl2)
T1 construct: pre-incubated with purified recombinant IN (at a final concentration of 200 nM); made in house
Outline: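 Recombinant HIV-1 IN (200 nM) preincubated with compound 30 min at 30 °C in MnCl2-containing buffer (MgCl2 plus PEG for Mg2+ format), then 1 h with 20 nM 5'-32P-labeled 21-mer duplex. 3'-processing and strand-transfer products resolved on denaturing gels, phosphorimager-quantified; IC50 from log-concentration versus % inhibition.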

[2] = system: HT 29 colon cancer cell line; experiment: MTT cytotoxicity assay, HT 29; type: cell-based; conditions: Homo sapiens, 72 h
Excerpt: as §1, §2, §3

[3] = read-out: Inhibition of IN catalytic activity IC50, 3’-Processing
[4] = read-out: Inhibition of IN catalytic activity IC50, Strand Transfer

O=C(Nc1ccc(Cl)cc1)C(=S)NN1C(=O)C(=Cc2ccc([N+](=O)[O-])o2)SC1=S [Compound 13, N-(4-chlorophenyl)-2-{5-[(5-nitro-2-furyl)methylene]-4-oxo-2-thioxo-1,3-thiazolidin-3-yl}amino-2-thioxoacetamide] was tested, and the GI50 [1] was 13.5 ± 5.2 µM, the IC50 (HIV-1 IN; [3]) was 68 ± 46 µM and the IC50 (HIV-1 IN; [4]) was 41 ± 27 µM. For the same compound, the GI50 [2] was greater than 10 µM.
COc1ccc(NC(=O)C(=S)NN2C(=O)C(=Cc3ccc([N+](=O)[O-])o3)SC2=S)cc1 [Compound 17, N-(4-methoxyphenyl)-2-{5-[(5-nitro-2-furyl)methylene]-4-oxo-2-thioxo-1,3-thiazolidin-3-yl}amino-2-thioxoacetamide] was tested, and the GI50 [1] was 9 ± 1.1 µM, the IC50 (HIV-1 IN; [3]) was 77 ± 10 µM and the IC50 (HIV-1 IN; [4]) was 60 µM. For the same compound, the GI50 [2] was 9.6 µM.
